System: 521955-158-R2-J5-PDC complex spheroids, viability
Assay: Anticancer human tumor 521955-158-R2-J5-PDC patient-derived pancreatic carcinoma cell line growth inhibition [RAS]
Settings: for IC50: curve of first compound; for viability, T/C: stronger effect = lower value
From the text: RAS pathway inhibitors in Combinations in Complex Spheroids
A high-throughput screen of multi-cell type tumor spheroids was designed to identify active combinations of RAS pathway inhibitors and targeted small molecules. Complex spheroids include a stromal component modeled by human endothelial cells (HUVEC) and fibroblasts modeled by human mesenchymal stem cells (MSCs). The concentration ranges selected for each drug and investigational agent were based upon clinically achievable concentrations if the clinical Cmax of the agent was known.
Compounds. The drugs and investigational agents: abemaciclib (NSC768073), cobimetinib (NSC768068), divarasib (GDC6063, NSC841802), docetaxel (NSC628503), GDC-1971 (RLY-1971, NSC841576), gemcitabine (NSC613327), inavolisib (NSC800729), ipatasertib (NSC767898), KB-0742 (NSC834161), MRTX-1133 (NSC836407), osimertinib (NSC779217), RMC-4630 (NSC839698), RMC-6236 (NSC851965), RMC-6291 (NSC852671), Ro-3306 (NSC812927), sapanisertib (NSC764658), SN-38 (NSC673596), staurosporine (NSC755774), SY5609 (NSC837396), and tovorafenib (DAY101, NSC766906), were obtained from the National Cancer Institute (NCI) Developmental Therapeutics Program Chemical Repository. The FDA-approved anticancer drug set is available from the NCI Developmental Therapeutics Program. […] The stock solutions were prepared in dimethyl sulfoxide (DMSO, Sigma-Aldrich, St. Louis, MO, cat. D2650) at 800-fold the tested concentration and stored at -70 degrees C prior to their use. All drugs and investigational agents were tested over a range starting from a high concentration at or near the clinical Cmax and decreasing in half-log increments. If the clinical Cmax for an agent had not been determined, the highest concentration tested was 10 microM.
Cell Culture. All cells were maintained in an incubator at 37 degrees C and 5% CO2 with 95% humidity. The PDC lines were cultured according to standard operating procedures established by the NCI PDMR. All PDCs were thawed and cultured in Matrigel-coated flasks prepared with a working solution of 1X Ham's F-12 nutrient mix, without supplementation (Invitrogen, Waltham, MA, cat. 11765054), 100 U/mL penicillin-streptomycin (Invitrogen, cat. 15140122), and 2.5% Matrigel (Corning Inc., Corning, NY, cat. 354248) for the first three passages. The 362531-283-R-J2-PDC and 782815-120-R-J1-PDC lines were cultured in 6C/Colon 1B media, which includes advanced DMEM/F-12 (Thermo Fisher Scientific, cat. 12634028), 10 mM HEPES (Thermo Fisher Scientific, cat. 15630080), 1X GlutaMAX supplement (Thermo Fisher Scientific, cat. 35050061), 0.1 mg/mL primocin (InvivoGen, San Diego, CA, cat. ant-pm-2), 10% defined fetal bovine serum, heat inactivated (HyClone Laboratories Inc., Logan, UT, cat. SH30070.03HI), 50% L-WRN conditioned media (ATCC, cat. CRL-3276), 1.25 mM N-Acetyl-L-cysteine (Sigma-Aldrich, cat. A9165), 10 mM nicotinamide (Sigma-Aldrich, cat. N0636), 1X B-27 supplement (Thermo Fisher Scientific, cat. 17504044), 1X N-2 supplement (Thermo Fisher Scientific, cat. 17502048), 50 ng/mL human EGF (Thermo Fisher Scientific, cat. PHG0311), and 10 microM Y-27632 dihydrochloride (Tocris Bioscience, cat. 1254). The K12877-001-R-J1-PDC line was cultured in 6I media, which includes all 6C/Colon 1B media plus 10 ng/mL human FGF-10 (PeproTech, cat. 100-26), 1 ng/mL human FGF-2 (PeproTech, cat. 100-18B), 1 µM prostaglandin E2 (Tocris Bioscience, cat. 2296), […] hydrocortisone (Sigma-Aldrich, cat. H4001), and […] bovine insulin (Sigma-Aldrich, cat. I6634). The K86415-001-R-J1-PDC line was cultured in 6D media, which includes all 6C/Colon 1B media components minus the L-WRN conditioned media. The 485176-168-R4-J1-PDC was cultured in PANC media, which includes all 6C/Colon 1B media plus 100 ng/mL human FGF-10 (PeproTech, cat. 100-26), 500 nM SB-431542 (Selleckchem, cat. S1067), and 10 nM gastrin (Tocris Bioscience, cat. 3006). […]
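Note: compound exposure lasted seven days before the viability read.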
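Throughout, for viability, T/C: spheroids also contain HUVEC endothelial cells and mesenchymal stem cells as stroma.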

Q: What does the source list for `CCc1c2c(nc3ccc(O)cc13)-c1cc3c(c(=O)n1C2)COC(=O)[C@]3(O)CC` + CCn1c(-c2cc(N3CCN(C)CC3)cnc2C(C)OC)c2c3cc(ccc31)-c1csc(n1)CC(NC(=O)C1CC1C)C(=O)N1CCCC(N1)C(=O)OCC(C)(C)C2?
A: IC50 (second compound 0.000949 µM): < 0.949 nM; IC50 (second compound 0.003 µM): < 0.949 nM; IC50 (second compound 0.00949 µM): < 0.949 nM; IC50 (second compound 0.03 µM): < 0.949 nM; IC50 (second compound 0.0949 µM): < 0.949 nM; IC50 (second compound 0.3 µM): < 0.949 nM; viability, T/C (second compound 0.000949 µM, first compound 0.000949 µM): 30.3%; viability, T/C (second compound 0.000949 µM, first compound 0.003 µM): 23.1%; viability, T/C (second compound 0.000949 µM, first compound 0.00949 µM): 20.6%; viability, T/C (second compound 0.000949 µM, first compound 0.03 µM): 6.46%; viability, T/C (second compound 0.000949 µM, first compound 0.0949 µM): 5.57%; viability, T/C (second compound 0.000949 µM, first compound 0.3 µM): 4.03%; viability, T/C (second compound 0.003 µM, first compound 0.000949 µM): 30.4%; viability, T/C (second compound 0.003 µM, first compound 0.003 µM): 26.8%; viability, T/C (second compound 0.003 µM, first compound 0.00949 µM): 19.9%; viability, T/C (second compound 0.003 µM, first compound 0.03 µM): 10.5%; viability, T/C (second compound 0.003 µM, first compound 0.0949 µM): 8.02%; viability, T/C (second compound 0.003 µM, first compound 0.3 µM): 5.19%; viability, T/C (second compound 0.00949 µM, first compound 0.000949 µM): 26.2%; viability, T/C (second compound 0.00949 µM, first compound 0.003 µM): 26%; viability, T/C (second compound 0.00949 µM, first compound 0.00949 µM): 19.6%; viability, T/C (second compound 0.00949 µM, first compound 0.03 µM): 9.8%; viability, T/C (second compound 0.00949 µM, first compound 0.0949 µM): 10.9%; viability, T/C (second compound 0.00949 µM, first compound 0.3 µM): 5.95%; viability, T/C (second compound 0.03 µM, first compound 0.000949 µM): 19.4%; viability, T/C (second compound 0.03 µM, first compound 0.003 µM): 21.2%; viability, T/C (second compound 0.03 µM, first compound 0.00949 µM): 13.2%; viability, T/C (second compound 0.03 µM, first compound 0.03 µM): 8.77%; viability, T/C (second compound 0.03 µM, first compound 0.0949 µM): 10.2%; viability, T/C (second compound 0.03 µM, first compound 0.3 µM): 5.37%; viability, T/C (second compound 0.0949 µM, first compound 0.000949 µM): 11.3%; viability, T/C (second compound 0.0949 µM, first compound 0.003 µM): 14.1%; viability, T/C (second compound 0.0949 µM, first compound 0.00949 µM): 8.2%; viability, T/C (second compound 0.0949 µM, first compound 0.03 µM): 6.36%; viability, T/C (second compound 0.0949 µM, first compound 0.0949 µM): 5.92%; viability, T/C (second compound 0.0949 µM, first compound 0.3 µM): 2.8%; viability, T/C (second compound 0.3 µM, first compound 0.000949 µM): 8.86%; viability, T/C (second compound 0.3 µM, first compound 0.003 µM): 10.8%; viability, T/C (second compound 0.3 µM, first compound 0.00949 µM): 8.12%; viability, T/C (second compound 0.3 µM, first compound 0.03 µM): 5.86%; viability, T/C (second compound 0.3 µM, first compound 0.0949 µM): 6.11%; viability, T/C (second compound 0.3 µM, first compound 0.3 µM): 2.57%
